Data: patent publication US6458802B1, “Antidepressant azaheterocyclymethyl derivatives of 2,3-dihydro-1,4-dioxino [2,3-f]quinoline” (Wyeth, priority 2001, dated 2002)
pIC50, pKi: −log10 of the molar value. Structures can show the parent of a compound that is named as a salt. Where two headings read alike, the source gives them in different places.

Key:
[1] = target: T1, cloned human 5HT1A receptors (Homo sapiens, UniProt P08908); experiment: 35S-GTPγS binding assay, antagonist activity at 5HT1A receptors; type: biochemical; conditions: for 5HT1A Function (Imax) / Emax: maximum inhibitory effect in 35S-GTPγS binding versus 8-OH-DPAT; for pIC50: 35S-GTPγS binding, reversal of the effects of the standard agonist 8-OH-DPAT, membranes with cloned human 5HT1A receptors, read-out: 5HT1A Function IC50; for Emax: read-out: 5HT1A Function (Imax)
T1 construct: expressed in transfected cells
T1 sequence (P08908 1-422): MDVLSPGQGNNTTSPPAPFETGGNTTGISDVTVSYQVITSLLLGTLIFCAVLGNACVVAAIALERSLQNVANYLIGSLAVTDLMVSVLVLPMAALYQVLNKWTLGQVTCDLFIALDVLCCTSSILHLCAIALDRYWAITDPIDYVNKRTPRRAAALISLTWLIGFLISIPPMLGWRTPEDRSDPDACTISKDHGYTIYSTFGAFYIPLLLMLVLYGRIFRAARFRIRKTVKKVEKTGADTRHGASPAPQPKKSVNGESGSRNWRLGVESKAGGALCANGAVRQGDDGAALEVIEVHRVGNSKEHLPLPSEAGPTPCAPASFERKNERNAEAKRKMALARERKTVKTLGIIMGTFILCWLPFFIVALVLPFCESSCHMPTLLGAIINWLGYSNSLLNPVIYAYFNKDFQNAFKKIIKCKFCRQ
Procedure: Antagonist activity at 5HT1A receptors was established by using a ^35S-GTPγS binding assay similar to that used by Lazareno and Birdsall (Br. J. Pharmacol. 109: 1120, 1993), in which the test compound's ability to affect the binding of 35S-GTPγS to membranes containing cloned human 5HT1A receptors was determined. Agonists produce an increase in binding whereas antagonists produce no increase but rather reverse the effects of the standard agonist 8-OH-DPAT. The test compound's maximum inhibitory effect is represented as the 1max, while its potency is defined by the IC50.

serotonin transporter = target: T2, serotonin transporter (Rattus norvegicus, UniProt P31652); experiment: 3H-paroxetine displacement, affinity for the serotonin transporter; type: binding
T2 construct: displace ^3H-paroxetine from male rat frontal cortical membranes; from tissue; host or cells: male rat frontal cortex membranes
T2 sequence (P31652 whole entry): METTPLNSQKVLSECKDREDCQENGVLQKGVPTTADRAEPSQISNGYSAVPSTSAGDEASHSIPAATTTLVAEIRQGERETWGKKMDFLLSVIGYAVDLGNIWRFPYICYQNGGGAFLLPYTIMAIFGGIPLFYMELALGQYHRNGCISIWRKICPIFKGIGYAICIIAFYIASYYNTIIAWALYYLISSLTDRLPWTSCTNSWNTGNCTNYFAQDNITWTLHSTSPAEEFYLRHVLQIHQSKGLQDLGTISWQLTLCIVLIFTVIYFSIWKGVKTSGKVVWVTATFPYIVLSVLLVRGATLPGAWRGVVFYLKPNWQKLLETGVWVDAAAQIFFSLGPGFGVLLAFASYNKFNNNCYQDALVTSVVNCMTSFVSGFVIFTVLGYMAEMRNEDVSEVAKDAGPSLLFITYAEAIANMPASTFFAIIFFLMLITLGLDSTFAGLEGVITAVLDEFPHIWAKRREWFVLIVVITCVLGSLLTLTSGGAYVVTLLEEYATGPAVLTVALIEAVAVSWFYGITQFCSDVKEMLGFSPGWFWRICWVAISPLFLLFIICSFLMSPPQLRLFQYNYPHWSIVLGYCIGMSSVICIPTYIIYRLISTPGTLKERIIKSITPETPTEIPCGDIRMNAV

human 5HT1A receptors = target: T3, human 5HT1A receptors (Homo sapiens, UniProt P08908); experiment: [3H] 8-OH-DPAT displacement from the 5HT1A serotonin receptor (transfected CHO cells); type: binding
T3 construct: expressed in transfected cells; host or cells: CHO cells
T3 sequence (P08908 1-422): T1 sequence (P08908 1-422)
Excerpt: High affinity for the serotonin 5HT1A receptor was established by testing the claimed compound's ability to displace [^3H] 8-OH-DPAT (dipropylamino-tetralin) from the 5HT1A serotonin receptor following a modification of the procedure of Hall et al., J. Neurochem. 44, 1685 (1985) which utilizes CHO cells stably transfected with human 5HT1A receptors.

[2] = displacement of [3H] 8-OH-DPAT, CHO cells stably transfected with human 5HT1A receptors, read-out: 5HT1A Receptor Affinity KI

Molecule | melting point | pIC50 [1] | Emax [1] | pKi (serotonin transporter) | pKi (human 5HT1A receptors) | also measured
2-({4-[(6-Chloro-1H-indol-3-yl)methyl]piperidin-1-yl}methyl)-8-methyl-2,3-dihydro[1,4]dioxino[2,3-f]quinoline [Example 20] | – | – | – | – | – | 5HT1A Function (Imax) [1]: (100)
2-({4-[(7-Ethyl-1H-indol-3-yl)methyl]piperidin-1-yl}methyl)-8-methyl-2,3-dihydro[1,4]dioxino[2,3-f]quinoline [Example 19] | – | – | – | – | – | 5HT1A Function (Imax) [1]: (100)
NC(=O)c1ccc2[nH]cc(C3=CCN(C[C@H]4COc5ccc6ncccc6c5O4)CC3)c2c1 (as salt: fumarate) (hydrate or solvate) [Example 6, 3-[1-(2,3-Dihydro[1,4]dioxino[2,3-f]qiuinolin-2-ylmethyl)-1,2,3,6-tetrahydropyridin-4-yl]-1H-indole-5-carboxylic Acid Amide] | 219 °C | – | – | – | – | –
Cc1ccc2c3c(ccc2n1)OCC(CN1CC=C(c2c[nH]c4ccc(F)cc24)CC1)O3 (stereo not drawn) (as salt: fumarate) (hydrate or solvate) [Example 11, 2-[4-(5-Fluoro-1H-indol-3-yl)-3,6-dihydro-2H-pyridin-1-ylmethyl]-8-methyl-2,3-dihydro[1,4]dioxino[2,3-f]quinoline] | 198 to 199 °C | – | – | – | – | –
Cc1ccc2c3c(ccc2n1)OCC(CN1CCC(c2c[nH]c4ccccc24)CC1)O3 (stereo not drawn) (as salt: fumarate) (hydrate or solvate) [Example 12, 2-[4-(1H-indol-3-yl)piperidin-1-ylmethyl]-8-methyl-2,3-dihydro[1,4]dioxino[2,3-f]quinoline] | 206 °C | – | – | – | – | –
CCc1ccc2c3c(ccc2n1)OCC(CN1CC=C(c2c[nH]c4ccc(F)cc24)CC1)O3 (stereo not drawn) (as salt: fumarate) (hydrate or solvate) [Example 14, 8-Ethyl-2-[(4-(5-fluoro-1H-indol-3-yl)-3,6-dihydropyridin-1(2H)-yl)methyl]-2,3-dihydro[1,4]dioxino[2,3-f]quinoline] | 143 to 144 °C | – | – | – | – | –
Fc1ccc2[nH]cc(C3=CCN(CC4COc5cc(F)c6ncccc6c5O4)CC3)c2c1 (stereo not drawn) (as salt: fumarate) (hydrate or solvate) [Example 15, 6-Fluoro-2-[(4-(5-fluoro-1H-indol-3-yl)-3,6-dihydropyridin-1(2H)-yl)methyl]-2,3-dihydro[1,4]dioxino[2,3-f]quinoline] | 190 °C | – | – | – | – | –
Nc1ccc2c3c(ccc2n1)OC[C@H](CN1CC=C(c2c[nH]c4ccc(F)cc24)CC1)O3 (as salt: fumarate) (hydrate or solvate) [Example 18, 2-[4-(5-Fluoro-1H-indol-3-yl)-3,6-dihydro-2H-pyridin-1-ylmethyl]-2,3-dihydro[1,4]dioxino[2,3-f]guinolin-8-ylamine] | 245 °C | – | – | – | – | –
Cc1ccc2[nH]cc(C3=CCN(CC4COc5ccc6nc(C)ccc6c5O4)CC3)c2c1 (stereo not drawn) (as salt: fumarate) (hydrate or solvate) [Example 22, 2-[4-(5-Methyl-1H-indol-3-yl)-3,6-dihydro-2H-pyridin-1-ylmethyl]-8-methyl-2,3-dihydro[1,4]dioxino[2,3-f]quinoline] | 150 to 155 °C | – | – | – | – | –
COc1ccc2[nH]cc(C3=CCN(C[C@H]4COc5ccc6ncccc6c5O4)CC3)c2c1 (as salt: fumarate) [Example 1] | 170 °C | – | – | – | – | –
COc1ccc2[nH]cc(C3=CCN(C[C@H]4COc5ccc6ncccc6c5O4)CC3)c2c1 [Example 1] | – | 6.49 | 100% | 7.27 | 8.03 | –
Fc1ccc2[nH]cc(C3=CCN(C[C@H]4COc5ccc6ncccc6c5O4)CC3)c2c1 [Example 2] | – | 6.61 | 100% | 8.55 | 8.01 | –
Fc1ccc2[nH]cc(CC3CCN(C[C@H]4COc5ccc6ncccc6c5O4)CC3)c2c1 [Example 3] | – | 6.92 | 90% | – | – | pKi (serotonin transporter; displacement of 3H-paroxetine from male rat frontal cortical membranes, read-out: 5-HT Transporter Affinity KI): 8.92; pKi (human 5HT1A receptors; [2]): 7.76
C1=C(c2c[nH]c3ccccc23)CCN(C[C@H]2COc3ccc4ncccc4c3O2)C1 [Example 4, 2-[1,4-(1H-indol-3-yl)-3,6-dihydro-2H-pyridin-1-ylmethyl]-2,3-dihydro[1,4]dioxino[2,3-f]quinoline] | – | 6.65 | 87% | 8.47 | 8.32 | –
N#Cc1ccc2[nH]cc(C3=CCN(CC4COc5ccc6ncccc6c5O4)CC3)c2c1 (stereo not drawn) [Example 5, 3-[1-(2,3-Dihydro[1,4]dioxino[2,3-f]quinolin-2-ylmethyl)-1,2,3,6-tetrahydropyridin-4-yl]-1H-indole-5-carbonitrile] | – | – | – | 8.60 | – | pKi (human 5HT1A receptors; [2]): 7.72
NC(=O)c1ccc2[nH]cc(C3=CCN(C[C@H]4COc5ccc6ncccc6c5O4)CC3)c2c1 [Example 6, 3-[1-(2,3-Dihydro[1,4]dioxino[2,3-f]qiuinolin-2-ylmethyl)-1,2,3,6-tetrahydropyridin-4-yl]-1H-indole-5-carboxylic Acid Amide] | – | – | – | 8.45 | – | pKi (human 5HT1A receptors; [2]): 8.03
Cn1cc(C2=CCN(C[C@H]3COc4ccc5ncccc5c4O3)CC2)c2cc(F)ccc21 [Example 7, 2-[4-(5-Fluoro-1-methyl-1H-indol-3-yl)-3,6-dihydro-2H-pyridin-1-ylmethyl]-2,3-dihydro[1,4]dioxino[2,3-f]qiuinoline] | – | 5.97 | 100% | 8.07 | 7.83 | –
Cc1ccc2c3c(ccc2n1)OCC(CN1CC=C(c2c[nH]c4cc(F)ccc24)CC1)O3 (stereo not drawn) [Example 10, 2-[4-(6-Fluoro-1H-indol-3-yl)-3,6-dihydro-2H-pyridin-1-ylmethyl]-8-methyl-2,3-dihydro[1,4]dioxino[2,3-f]quinoline] | – | 6.59 | 100% | 8.10 | 8.17 | –
Cc1ccc2c3c(ccc2n1)OCC(CN1CC=C(c2c[nH]c4ccc(F)cc24)CC1)O3 (stereo not drawn) [Example 11, 2-[4-(5-Fluoro-1H-indol-3-yl)-3,6-dihydro-2H-pyridin-1-ylmethyl]-8-methyl-2,3-dihydro[1,4]dioxino[2,3-f]quinoline] | – | 6.92 | 100% | 8.26 | 7.88 | –
Cc1ccc2c3c(ccc2n1)OCC(CN1CCC(c2c[nH]c4ccccc24)CC1)O3 (stereo not drawn) [Example 12, 2-[4-(1H-indol-3-yl)piperidin-1-ylmethyl]-8-methyl-2,3-dihydro[1,4]dioxino[2,3-f]quinoline] | – | 7.07 | 100% | 8.62 | 8.00 | –
CCc1ccc2c3c(ccc2n1)OCC(CN1CC=C(c2c[nH]c4ccc(F)cc24)CC1)O3 (stereo not drawn) [Example 14, 8-Ethyl-2-[(4-(5-fluoro-1H-indol-3-yl)-3,6-dihydropyridin-1(2H)-yl)methyl]-2,3-dihydro[1,4]dioxino[2,3-f]quinoline] | – | 6.78 | 100% | 7.85 | 7.81 | –
Fc1ccc2[nH]cc(C3=CCN(CC4COc5cc(F)c6ncccc6c5O4)CC3)c2c1 (stereo not drawn) [Example 15, 6-Fluoro-2-[(4-(5-fluoro-1H-indol-3-yl)-3,6-dihydropyridin-1(2H)-yl)methyl]-2,3-dihydro[1,4]dioxino[2,3-f]quinoline] | – | 5.99 | 100% | 8.82 | 7.44 | –
COc1cc2c(c3cccnc13)O[C@@H](CN1CC=C(c3c[nH]c4ccc(F)cc34)CC1)CO2 [Example 17, 2-[4-(5-Fluoro-1H-indol-3-yl)-3,6-dihydro-2H-pyridin-1-ylmethyl]-6-methoxy-2,3-dihydro[1,4]dioxino[2,3-f]qiuinoline] | – | 5.85 | 100% | 8.32 | – | pKi (human 5HT1A receptors; [2]): 6.50
Nc1ccc2c3c(ccc2n1)OC[C@H](CN1CC=C(c2c[nH]c4ccc(F)cc24)CC1)O3 [Example 18, 2-[4-(5-Fluoro-1H-indol-3-yl)-3,6-dihydro-2H-pyridin-1-ylmethyl]-2,3-dihydro[1,4]dioxino[2,3-f]guinolin-8-ylamine] | – | 7.07 | 100% | 9.18 | 7.96 | –
Cc1ccc2[nH]cc(C3=CCN(CC4COc5ccc6nc(C)ccc6c5O4)CC3)c2c1 (stereo not drawn) [Example 22, 2-[4-(5-Methyl-1H-indol-3-yl)-3,6-dihydro-2H-pyridin-1-ylmethyl]-8-methyl-2,3-dihydro[1,4]dioxino[2,3-f]quinoline] | – | 6.30 | 100% | 7.23 | 7.46 | –
